Laboratory results published in ChEMBL document CHEMBL1201862, “PubChem BioAssay data set” (2004).
Activity calls are given as the source filed them.

Legend:
Format in all cases: functional
[1] = molecular target: T1, Microphthalmia-associated transcription factor (Homo sapiens, UniProt O75030); assay: reducers of TRPM1 reporter luminescence, concentration series – cell-based, SK-MEL-5, cherry-picked, set 3, MITF inhibitor project, dose response (AID 493073);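 note: SK-MEL-5 melanoma cells with luciferase driven by the MITF target TRPM1 promoter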
T1 sequence (O75030 whole entry): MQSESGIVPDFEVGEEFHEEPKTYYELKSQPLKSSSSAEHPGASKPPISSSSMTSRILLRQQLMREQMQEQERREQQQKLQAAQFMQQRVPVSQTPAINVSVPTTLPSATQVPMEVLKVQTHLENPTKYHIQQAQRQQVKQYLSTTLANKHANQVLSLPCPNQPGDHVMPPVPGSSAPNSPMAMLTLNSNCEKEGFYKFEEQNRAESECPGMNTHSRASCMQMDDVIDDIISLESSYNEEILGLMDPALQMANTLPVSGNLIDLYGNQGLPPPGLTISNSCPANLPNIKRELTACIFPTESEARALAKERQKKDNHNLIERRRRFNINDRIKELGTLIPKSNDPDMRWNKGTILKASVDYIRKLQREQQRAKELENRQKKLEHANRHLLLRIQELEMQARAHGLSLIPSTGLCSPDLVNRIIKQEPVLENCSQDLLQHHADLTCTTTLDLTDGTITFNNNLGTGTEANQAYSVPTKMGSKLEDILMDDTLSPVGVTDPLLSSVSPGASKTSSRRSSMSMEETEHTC

[2] = test system: A-375; assay: proliferation inhibition in MITF-low A375 cells – cell-based, cherry-pick samples, set 2, counter-screen for MITF modulator project, dose response (AID 540335); settings: Homo sapiens
[3] = molecular target: T2, Replicative DNA helicase DnaB (Mycobacterium tuberculosis, UniProt P9WMR3); assay: DnaB intein splicing inhibitors, dose response, biochemical, cell-free fluorescence (AID 449749)
T2 sequence (P9WMR3 whole entry): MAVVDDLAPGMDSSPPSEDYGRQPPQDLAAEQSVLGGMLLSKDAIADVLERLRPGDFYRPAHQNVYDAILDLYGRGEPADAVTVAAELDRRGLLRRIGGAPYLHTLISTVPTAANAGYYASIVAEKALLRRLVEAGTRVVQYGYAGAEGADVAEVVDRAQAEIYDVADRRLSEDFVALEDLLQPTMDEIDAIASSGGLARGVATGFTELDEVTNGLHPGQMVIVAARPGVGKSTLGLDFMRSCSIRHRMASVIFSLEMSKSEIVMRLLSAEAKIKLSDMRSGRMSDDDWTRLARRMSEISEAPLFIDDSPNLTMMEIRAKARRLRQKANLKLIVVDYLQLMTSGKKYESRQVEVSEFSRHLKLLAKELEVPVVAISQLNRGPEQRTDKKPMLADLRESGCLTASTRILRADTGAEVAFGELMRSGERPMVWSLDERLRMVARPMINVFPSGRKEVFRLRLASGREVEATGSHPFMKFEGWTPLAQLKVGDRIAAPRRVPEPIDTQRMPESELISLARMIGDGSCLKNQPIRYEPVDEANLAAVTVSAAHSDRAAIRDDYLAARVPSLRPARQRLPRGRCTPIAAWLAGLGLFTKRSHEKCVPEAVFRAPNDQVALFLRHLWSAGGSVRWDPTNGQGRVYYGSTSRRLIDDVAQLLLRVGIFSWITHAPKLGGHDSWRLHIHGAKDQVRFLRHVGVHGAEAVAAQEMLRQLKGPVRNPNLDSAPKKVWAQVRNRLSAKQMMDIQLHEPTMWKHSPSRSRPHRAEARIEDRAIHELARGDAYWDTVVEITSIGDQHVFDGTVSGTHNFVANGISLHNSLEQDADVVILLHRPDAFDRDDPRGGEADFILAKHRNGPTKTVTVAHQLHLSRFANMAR

[4] = test system: A-375; assay: MITF: Counter assay: A375 proliferation Measured in Cell-Based System Using Plate Reader - 2084-03_Inhibitor_Dose_DryPowder_Activity. [Related pubchem assays (depositor defined):AID488944]; settings: Homo sapiens
[5] = molecular target: T3, Protein RecA (Mycobacterium tuberculosis, UniProt P9WHJ3); assay: Fluorescence Cell-Free Homogeneous Dose Retest to Identify Inhibitors of RecA-Intein Splicing Activity. [Related pubchem assays (depositor defined):AID2097, AID2223, AID489010, AID492950]
T3 sequence (P9WHJ3 whole entry): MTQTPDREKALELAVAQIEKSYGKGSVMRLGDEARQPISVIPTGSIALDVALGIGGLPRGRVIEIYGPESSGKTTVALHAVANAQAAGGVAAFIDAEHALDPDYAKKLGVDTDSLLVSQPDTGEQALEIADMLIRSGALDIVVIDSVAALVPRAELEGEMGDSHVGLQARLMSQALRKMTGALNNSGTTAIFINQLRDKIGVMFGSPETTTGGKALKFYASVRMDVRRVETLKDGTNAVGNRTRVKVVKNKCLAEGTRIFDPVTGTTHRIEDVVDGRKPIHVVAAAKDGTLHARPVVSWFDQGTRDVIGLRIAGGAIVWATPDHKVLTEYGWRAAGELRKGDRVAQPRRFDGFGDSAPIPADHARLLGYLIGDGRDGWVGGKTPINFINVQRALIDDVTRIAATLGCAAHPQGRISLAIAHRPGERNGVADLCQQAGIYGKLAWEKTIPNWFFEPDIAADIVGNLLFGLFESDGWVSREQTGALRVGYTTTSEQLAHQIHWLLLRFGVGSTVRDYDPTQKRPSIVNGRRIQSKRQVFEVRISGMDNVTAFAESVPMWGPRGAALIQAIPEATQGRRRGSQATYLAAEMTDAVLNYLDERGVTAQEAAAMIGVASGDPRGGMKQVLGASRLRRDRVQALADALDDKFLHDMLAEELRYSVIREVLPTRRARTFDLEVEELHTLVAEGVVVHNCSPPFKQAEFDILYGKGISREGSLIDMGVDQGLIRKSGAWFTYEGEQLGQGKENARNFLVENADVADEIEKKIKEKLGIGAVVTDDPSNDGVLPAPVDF

Cc1c(C#N)c(NC(=O)CCl)n(Cc2cccs2)c1C
active: AC50 [1] 7.07 µM | AC50 [2] > 35 µM | AC50 [3] 48 µM | AC50 [4] > 35 µM | EC50 [5] 9.25 µM
